From ChEMBL document CHEMBL1201862, “PubChem BioAssay data set” (2004)
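Five concentrations, 48 hours, 96-well plates. GI50 is the concentration that inhibits growth by half.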 The source made the active and inactive calls. Rule as the data show it: active = GI50 up to about 1.1 µM and inactive = higher.

Experiments:
Assay in all cases: NCI tumour cell line growth inhibition, 48 h
SNB-78 = test system: SNB-78
DLD-1 = test system: DLD-1
M19-MEL = test system: M19-MEL
RXF 631 = test system: RXF 631
HOP-18 = test system: HOP-18
DMS-273 = test system: DMS-273
XF498 = test system: XF498
MDA-MB-231 = test system: MDA-MB-231
MDA-MB-435 = test system: MDA-MB-435

Measured: GI50

O=c1cccccc1NCCCCCCNc1cccccc1=O
inactive: SNB-78 > 100 µM | DLD-1 > 100 µM | M19-MEL > 100 µM | RXF 631 > 100 µM | HOP-18 > 100 µM | DMS-273 > 100 µM

CCOC(=O)C1=C(NC)OCC1=O
inactive: XF498 > 100 µM | SNB-78 > 100 µM | M19-MEL > 100 µM | RXF 631 > 100 µM | DMS-273 > 100 µM

O=C(Cc1ccccc1)NN1C(=O)C(Cl)C1c1ccc(Cl)cc1 (configuration not stated)
inactive: XF498 > 100 µM | SNB-78 > 100 µM | DLD-1 > 100 µM | HOP-18 > 100 µM | DMS-273 > 100 µM

CC#N.O[C@@H]1CCCC[C@@H]1O.O[C@@H]1CCCC[C@@H]1O.[TeH2]
inactive: XF498 > 100 µM | SNB-78 > 100 µM | DLD-1 22.7 µM | M19-MEL 25.1 µM | RXF 631 18.7 µM | HOP-18 27.5 µM | DMS-273 19.6 µM

CCCCCCCSCC1OC(n2cnc3c(N)ncnc32)C(O)C1O (configuration not stated)
inactive: XF498 63.4 µM | SNB-78 > 100 µM | DLD-1 7.64 µM | HOP-18 17.9 µM | DMS-273 21.3 µM

CN(C)CC1(Cc2ccccc2)CC/C(=C\c2ccccc2)C1=O (configuration not stated)
inactive: XF498 80.9 µM | SNB-78 52.2 µM | DLD-1 27.6 µM | M19-MEL 26.8 µM | RXF 631 29.3 µM | HOP-18 > 100 µM | DMS-273 36.5 µM

S=C(N/N=C/c1ccccc1)NC12CC3CC(CC(C3)C1)C2
inactive: XF498 35.8 µM | RXF 631 44.5 µM | DMS-273 22.6 µM

CC(C)Cc1ccc(C(C)C(=O)N2CCN(/C=C/c3ccccc3)CC2)cc1 (configuration not stated)
inactive: XF498 13.8 µM | SNB-78 25.1 µM | DLD-1 13.7 µM | M19-MEL 15.7 µM | HOP-18 21.5 µM | DMS-273 11.4 µM

CC(=O)OCCOCNC(=S)N/N=C(\C)c1cnc2ccccc2n1
inactive: XF498 > 100 µM | SNB-78 > 100 µM | DLD-1 26.2 µM | M19-MEL 15.8 µM | HOP-18 > 100 µM | DMS-273 31.9 µM

O=c1cc[nH]c2c1ccc1ncccc12
inactive: SNB-78 > 100 µM | DLD-1 > 100 µM | M19-MEL > 100 µM | RXF 631 > 100 µM | HOP-18 > 100 µM | DMS-273 > 100 µM

CC(C)OC(=O)c1cc(NC(=O)C(C)(C)C)c(F)cc1Cl
inactive: XF498 > 100 µM | M19-MEL > 100 µM | RXF 631 > 100 µM | HOP-18 > 100 µM | DMS-273 > 100 µM

COC1(Cc2ccccc2)C(=O)c2ccccc2N1C(C)=O (configuration not stated)
inactive: XF498 > 100 µM | SNB-78 > 100 µM | DLD-1 > 100 µM | M19-MEL > 100 µM | RXF 631 > 100 µM | HOP-18 > 100 µM | DMS-273 > 100 µM

COc1ccc(C=O)c(NC(=O)C(C)C)c1
inactive: XF498 21.9 µM | SNB-78 66.1 µM | M19-MEL 21 µM | HOP-18 39.7 µM | DMS-273 28.9 µM

O=c1cc2ccccc2nn1Cc1ccccc1Cl
inactive: XF498 80.2 µM | SNB-78 > 100 µM | DLD-1 > 100 µM | M19-MEL > 100 µM | HOP-18 > 100 µM | DMS-273 > 100 µM

Sc1nc(S)nc(Oc2ccc(Cl)c(Cl)c2)n1
inactive: XF498 25.4 µM | MDA-MB-231 39.4 µM | SNB-78 34.4 µM | DLD-1 27.1 µM | M19-MEL 22.8 µM | RXF 631 16.3 µM | HOP-18 36.4 µM | MDA-MB-435 > 100 µM | DMS-273 19 µM

CCOC(=O)/C=C/n1c2ccccc2c(=O)c2cc(OC)ccc21
inactive: XF498 48.5 µM | DLD-1 69.7 µM | M19-MEL > 100 µM | RXF 631 87.5 µM | HOP-18 > 100 µM | DMS-273 49 µM

C/C(=N\NC(=S)Nc1ccc([N+](=O)[O-])cc1S(=O)(=O)O)c1ccccn1
inactive: XF498 30 µM | SNB-78 > 100 µM | DLD-1 41.2 µM | M19-MEL 43.8 µM | RXF 631 > 100 µM | HOP-18 40.1 µM | DMS-273 37 µM

COC(=O)[C@H](Cc1ccccc1)NC(=O)/C(=C/C(C)C)NC(=O)[C@H](CCSC)NC=O
inactive: XF498 > 100 µM | DLD-1 > 100 µM | M19-MEL > 100 µM | HOP-18 > 100 µM | DMS-273 > 100 µM

CC(=O)C(CN(C)C)C(c1ccccc1)c1c(O)c2ccccc2oc1=O (configuration not stated)
inactive: XF498 > 100 µM | SNB-78 > 100 µM | DLD-1 > 100 µM | M19-MEL > 100 µM | HOP-18 > 100 µM | DMS-273 > 100 µM

COC(=O)c1ccc(/N=N/N(C)COc2ccc(Br)cc2)cc1
inactive: XF498 > 100 µM | SNB-78 > 100 µM | DLD-1 > 54.6 µM | M19-MEL > 100 µM | HOP-18 > 100 µM | DMS-273 > 89.9 µM

COC(=O)C1=C(OC)c2cc3c(cc2C(c2cc(OC)c(OC)c(OC)c2)C1C(=O)OC)OCO3 (configuration not stated)
inactive: XF498 > 100 µM | SNB-78 > 100 µM | DLD-1 > 100 µM | M19-MEL > 100 µM | HOP-18 > 100 µM | DMS-273 > 100 µM

CCOc1ccc(C2=C(Cl)c3cc(OC)c(OC)cc3C2Cl)cc1 (configuration not stated)
inactive: XF498 19.6 µM | SNB-78 27.4 µM | DLD-1 37.6 µM | M19-MEL 45.2 µM | HOP-18 42.8 µM | DMS-273 37.9 µM

CC12CCC(C(=O)N3CC=CCC3)(OC1=O)C2(C)C (configuration not stated)
inactive: XF498 > 100 µM | SNB-78 > 100 µM | DLD-1 > 100 µM | M19-MEL > 100 µM | HOP-18 > 100 µM | DMS-273 > 100 µM

O=C(O)C(Cl)(Cl)Cl
inactive: XF498 > 100 µM | SNB-78 > 100 µM | DLD-1 > 100 µM | M19-MEL > 100 µM | HOP-18 80 µM | DMS-273 > 100 µM
